Reference: ChEMBL document CHEMBL3616440, “Non-basic azolotriazinone MCHR1 antagonists for the treatment of obesity: An empirical brain-exposures-driven candidate selection for in vivo efficacy studies” (Bioorg Med Chem Lett, 2015)

Columns and labels:
Brain [1] = test: Drug concentration in Sprague-Dawley rat brain assessed as 6-(4-chlorophenyl)-3-(4-(2-cyclopropyl-2-hydroxyethoxy)-3-methoxyphenyl)pyrrolo[1,2-f][1,2,4]triazin-4(3H)-one level at 3 mg/kg, po qd at 20 hrs; format: ADME, organism-based; conditions: in vivo, read-out: Drug uptake
Brain [2] = test: Drug concentration in Sprague-Dawley rat brain assessed as 6-(4-chlorophenyl)-3-(4-(2-cyclopropyl-2-hydroxyethoxy)-3-methoxyphenyl)pyrrolo[1,2-f][1,2,4]triazin-4(3H)-one level at 10 mg/kg, po qd at 20 hrs; format: ADME, organism-based; conditions: in vivo, read-out: Drug uptake
Brain [3] = test: Drug concentration in Sprague-Dawley rat brain assessed as 6-(4-chlorophenyl)-3-(4-(2-cyclopropyl-2-hydroxyethoxy)-3-methoxyphenyl)pyrrolo[1,2-f][1,2,4]triazin-4(3H)-one level at 30 mg/kg, po qd at 20 hrs; format: ADME, organism-based; conditions: in vivo, read-out: Drug uptake
Brain [4] = test: Free drug level in Sprague-Dawley rat brain assessed as 6-(4-chlorophenyl)-3-(4-(2-cyclopropyl-2-hydroxyethoxy)-3-methoxyphenyl)pyrrolo[1,2-f][1,2,4]triazin-4(3H)-one level at 3 mg/kg, po qd at 20 hrs; format: ADME, organism-based; conditions: in vivo
Brain [5] = test: Free drug level in Sprague-Dawley rat brain assessed as 6-(4-chlorophenyl)-3-(4-(2-cyclopropyl-2-hydroxyethoxy)-3-methoxyphenyl)pyrrolo[1,2-f][1,2,4]triazin-4(3H)-one level at 10 mg/kg, po qd at 20 hrs; format: ADME, organism-based; conditions: in vivo
Brain [6] = test: Free drug level in Sprague-Dawley rat brain assessed as 6-(4-chlorophenyl)-3-(4-(2-cyclopropyl-2-hydroxyethoxy)-3-methoxyphenyl)pyrrolo[1,2-f][1,2,4]triazin-4(3H)-one level at 30 mg/kg, po qd at 20 hrs; format: ADME, organism-based; conditions: in vivo
Rattus norvegicus [7] = test: Antiobesity activity in Sprague-Dawley rat assessed as body weight reduction at 3 mg/kg, po qd after 4 days relative to control; format: functional; conditions: 96 h
Rattus norvegicus [8] = test: Antiobesity activity in Sprague-Dawley rat assessed as body weight reduction at 10 mg/kg, po qd after 4 days relative to control; format: functional; conditions: 96 h
Rattus norvegicus [9] = test: Antiobesity activity in Sprague-Dawley rat assessed as body weight reduction at 30 mg/kg, po qd after 4 days relative to control; format: functional; conditions: 96 h
[10] = Ratio of free drug level in brain of Sprague-Dawley rat assessed as 6-(4-chlorophenyl)-3-(4-(2-cyclopropyl-2-hydroxyethoxy)-3-methoxyphenyl)pyrrolo[1,2-f][1,2,4]triazin-4(3H)-one level at 3 mg/kg, po to Ki for rat MCHR1; format: ADME, organism-based; conditions: in vivo
[11] = Ratio of free drug level in brain of Sprague-Dawley rat assessed as 6-(4-chlorophenyl)-3-(4-(2-cyclopropyl-2-hydroxyethoxy)-3-methoxyphenyl)pyrrolo[1,2-f][1,2,4]triazin-4(3H)-one level at 10 mg/kg, po to Ki for rat MCHR1; format: ADME, organism-based; conditions: in vivo
[12] = Ratio of free drug level in brain of Sprague-Dawley rat assessed as 6-(4-chlorophenyl)-3-(4-(2-cyclopropyl-2-hydroxyethoxy)-3-methoxyphenyl)pyrrolo[1,2-f][1,2,4]triazin-4(3H)-one level at 30 mg/kg, po to Ki for rat MCHR1; format: ADME, organism-based; conditions: in vivo
Plasma [13] = test: Plasma concentration in Sprague-Dawley rat assessed as 6-(4-chlorophenyl)-3-(4-(2-cyclopropyl-2-hydroxyethoxy)-3-methoxyphenyl)pyrrolo[1,2-f][1,2,4]triazin-4(3H)-one level at 10 mg/kg, po qd at 8 hrs; format: ADME, organism-based; conditions: in vivo
Brain [14] = test: Drug concentration in Sprague-Dawley rat brain assessed as 6-(4-chlorophenyl)-3-(4-(2-cyclopropyl-2-hydroxyethoxy)-3-methoxyphenyl)pyrrolo[1,2-f][1,2,4]triazin-4(3H)-one level at 10 mg/kg, po qd at 8 hrs; format: ADME, organism-based; conditions: in vivo, read-out: Drug uptake
Nucleic Acid [15] = test: Ratio of drug level in Sprague-Dawley rat brain to plasma assessed as 6-(4-chlorophenyl)-3-(4-(2-cyclopropyl-2-hydroxyethoxy)-3-methoxyphenyl)pyrrolo[1,2-f][1,2,4]triazin-4(3H)-one level at 10 mg/kg, po qd; format: ADME, organism-based
Plasma [16] = test: Fraction unbound in Sprague-Dawley rat plasma assessed as 6-(4-chlorophenyl)-3-(4-(2-cyclopropyl-2-hydroxyethoxy)-3-methoxyphenyl)pyrrolo[1,2-f][1,2,4]triazin-4(3H)-one level; format: ADME, cell-free
Plasma [17] = test: Plasma concentration in Sprague-Dawley rat assessed as (S)-6-(5-chloropyridin-2-yl)-3-(4-(3-(ethylsulfonyl)-2-hydroxypropoxy)-3-methoxyphenyl)pyrrolo[1,2-f][1,2,4]triazin-4(3H)-one level at 10 mg/kg, po qd at 8 hrs; format: ADME, organism-based; conditions: in vivo
Brain [18] = test: Drug concentration in Sprague-Dawley rat brain assessed as (S)-6-(5-chloropyridin-2-yl)-3-(4-(3-(ethylsulfonyl)-2-hydroxypropoxy)-3-methoxyphenyl)pyrrolo[1,2-f][1,2,4]triazin-4(3H)-one level at 10 mg/kg, po qd at 8 hrs; format: ADME, organism-based; conditions: in vivo, read-out: Drug uptake
Nucleic Acid [19] = test: Ratio of drug level in Sprague-Dawley rat brain to plasma assessed as (S)-6-(5-chloropyridin-2-yl)-3-(4-(3-(ethylsulfonyl)-2-hydroxypropoxy)-3-methoxyphenyl)pyrrolo[1,2-f][1,2,4]triazin-4(3H)-one level at 10 mg/kg, po qd; format: ADME, organism-based
Plasma [20] = test: Plasma concentration in Sprague-Dawley rat assessed as 6-(5-chloropyrimidin-2-yl)-3-(4-((3,3-difluoro-1-hydroxycyclobutyl)methoxy)-3-methoxyphenyl)pyrrolo[1,2-f][1,2,4]triazin-4(3H)-one level at 10 mg/kg, po qd at 8 hrs; format: ADME, organism-based; conditions: in vivo
Brain [21] = test: Drug concentration in Sprague-Dawley rat brain assessed as 6-(5-chloropyrimidin-2-yl)-3-(4-((3,3-difluoro-1-hydroxycyclobutyl)methoxy)-3-methoxyphenyl)pyrrolo[1,2-f][1,2,4]triazin-4(3H)-one level at 10 mg/kg, po qd at 8 hrs; format: ADME, organism-based; conditions: in vivo, read-out: Drug uptake
Nucleic Acid [22] = test: Ratio of drug level in Sprague-Dawley rat brain to plasma assessed as 6-(5-chloropyrimidin-2-yl)-3-(4-((3,3-difluoro-1-hydroxycyclobutyl)methoxy)-3-methoxyphenyl)pyrrolo[1,2-f][1,2,4]triazin-4(3H)-one level at 10 mg/kg, po qd; format: ADME, organism-based

`COc1cc(-n2cnn3cc(-c4ccc(Cl)cc4)cc3c2=O)ccc1OCC(OC(=O)[C@@H](N)C(C)C)C1CC1` (some centres not stated) gave a concentration (Brain [1]) of 3.42 µM, a concentration (Brain [2]) of 7.98 µM and a concentration (Brain [3]) of 14.8 µM. The “Drug uptake(free)” value (Brain [4]) was 10 nM, the “Drug uptake(free)” value (Brain [5]) was 24 nM and the “Drug uptake(free)” value (Brain [6]) was 44 nM. The inhibition in vivo at 3 mg/kg (Rattus norvegicus [7]) was 0%, the inhibition in vivo at 10 mg/kg (Rattus norvegicus [8]) was 0% and the inhibition in vivo at 30 mg/kg (Rattus norvegicus [9]) was 2.5%. The Ratio [10] was 3.6, the Ratio [11] was 8.6 and the Ratio [12] was 16. For the same molecule, the concentration (Plasma [13]) was 1.25 µM, the concentration (Brain [14]) was 3.74 µM and the BPR (Nucleic Acid [15]) was 3. The Fu (Plasma [16]) was 0.3%.
`CCS(=O)(=O)C[C@H](COc1ccc(-n2cnn3cc(-c4ccc(Cl)cn4)cc3c2=O)cc1OC)OC(=O)CN` gave a concentration (Plasma [17]) of 15.6 µM, a concentration (Brain [18]) of 0.401 µM and a BPR (Nucleic Acid [19]) of 0.03.
Work on `COc1cc(-n2cnn3cc(-c4ncc(Cl)cn4)cc3c2=O)ccc1OCC1(OC(=O)CN)CC(F)(F)C1` yielded a concentration (Plasma [20]) of 1.13 µM, a concentration (Brain [21]) of 0.805 µM and a BPR (Nucleic Acid [22]) of 0.7.
